# Reference: US20030215462A1, “Use of UGT inhibitors to increase bioavailability” (priority 2001, published 2003)
# Where “and” joins values, the source holds several entries; their conditions need not be identical. Equal values may be shown once.
# Experiments:
# [1] = tested on: pooled human jejunum microsomes; assay: Glucuronidation of UGT substrates by pooled human jejunum microsomes; conditions: human jejunum microsomes (table footnote)
# [2] = target: T1, UGT1A9 (Homo sapiens, UniProt O60656); assay: Substrate glucuronidation by recombinant UGT1A9
# T1 sequence (O60656 26-530): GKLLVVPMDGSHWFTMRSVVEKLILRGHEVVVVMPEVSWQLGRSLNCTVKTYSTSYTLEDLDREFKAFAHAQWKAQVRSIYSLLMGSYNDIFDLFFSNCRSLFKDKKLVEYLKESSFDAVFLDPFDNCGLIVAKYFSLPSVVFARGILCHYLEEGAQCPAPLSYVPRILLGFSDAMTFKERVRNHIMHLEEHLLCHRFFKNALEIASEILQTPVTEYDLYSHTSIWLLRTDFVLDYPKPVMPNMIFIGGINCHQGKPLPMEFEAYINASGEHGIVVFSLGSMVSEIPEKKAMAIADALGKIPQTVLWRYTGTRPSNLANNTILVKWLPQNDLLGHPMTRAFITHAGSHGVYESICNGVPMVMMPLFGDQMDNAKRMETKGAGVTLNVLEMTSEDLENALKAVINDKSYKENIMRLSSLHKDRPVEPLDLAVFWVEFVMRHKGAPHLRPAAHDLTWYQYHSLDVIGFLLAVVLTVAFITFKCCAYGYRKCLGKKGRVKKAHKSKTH
# [3] = target: T2, UGT1A3 (Homo sapiens, UniProt P35503); assay: Substrate glucuronidation by recombinant UGT1A3; conditions: for 7-HFC glucuronidation rate: 7-HFC 50 μM
# T2 sequence (P35503 29-534): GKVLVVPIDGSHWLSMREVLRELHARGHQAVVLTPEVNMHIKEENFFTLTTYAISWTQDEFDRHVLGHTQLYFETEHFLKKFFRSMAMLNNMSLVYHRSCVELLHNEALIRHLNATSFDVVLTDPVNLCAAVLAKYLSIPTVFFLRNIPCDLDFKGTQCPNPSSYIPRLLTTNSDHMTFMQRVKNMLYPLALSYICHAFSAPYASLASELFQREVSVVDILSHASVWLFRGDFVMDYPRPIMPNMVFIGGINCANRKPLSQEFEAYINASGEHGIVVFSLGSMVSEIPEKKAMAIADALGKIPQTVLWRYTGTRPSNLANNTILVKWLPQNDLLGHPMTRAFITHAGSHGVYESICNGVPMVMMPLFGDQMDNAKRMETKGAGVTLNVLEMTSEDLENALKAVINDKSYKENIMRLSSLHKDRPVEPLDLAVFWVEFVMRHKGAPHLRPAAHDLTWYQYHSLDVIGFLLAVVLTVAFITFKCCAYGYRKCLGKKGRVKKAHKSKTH
# [4] = tested on: UGT enzymes of human liver microsomes; assay: Inhibition of 7-HFC glucuronidation in human liver microsomes; type: biochemical; conditions: 7-HFC 50 μM, human liver microsomes 100 μg/ml, 15 min
# [5] = target: T2, UGT1A3; assay: in vitro
# Experimental: (§1) Compounds were eluted using a binary solvent gradient system. Solvent A was water brought to pH 8 with NH4OH. Solvent B was methanol. Solvent flow rate was 1 ml/min and the column temperature was maintained at 50° C. Detection was at 280 nm. […] The system was then returned to the initial conditions and equilibrated for 3 min.
# [6] = target: T1, UGT1A9; assay: in vitro
# Experimental: as §1
# [7] = target: T3, UGT1A8 (Homo sapiens, UniProt Q9HAW9); assay: in vitro; conditions: pH 7.5, % of control metabolism
# T3 sequence (Q9HAW9 26-530): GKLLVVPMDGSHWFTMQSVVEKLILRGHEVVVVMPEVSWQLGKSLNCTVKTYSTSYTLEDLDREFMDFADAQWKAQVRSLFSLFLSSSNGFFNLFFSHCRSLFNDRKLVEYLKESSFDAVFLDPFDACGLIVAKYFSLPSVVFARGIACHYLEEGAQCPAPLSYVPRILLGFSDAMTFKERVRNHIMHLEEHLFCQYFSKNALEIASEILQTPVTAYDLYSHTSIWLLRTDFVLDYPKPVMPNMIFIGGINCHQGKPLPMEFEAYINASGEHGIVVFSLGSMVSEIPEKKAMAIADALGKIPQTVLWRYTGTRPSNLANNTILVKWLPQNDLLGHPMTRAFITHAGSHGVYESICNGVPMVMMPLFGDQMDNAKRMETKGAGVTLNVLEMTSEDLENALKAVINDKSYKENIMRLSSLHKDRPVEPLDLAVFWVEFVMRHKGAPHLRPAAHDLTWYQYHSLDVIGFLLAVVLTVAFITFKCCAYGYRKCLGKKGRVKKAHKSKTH
# Experimental: as §1
# [8] = healthy volunteers, concomitant diflunisal; cited from earlier work
# [9] = tested on: UGT enzymes of human liver microsomes; assay: Kinetic and Ki studies of inhibitors of 7-HFC glucuronidation in human liver microsomes; type: biochemical; conditions: for Inhibition Type: highest inhibitor concentration only; for Ki: highest inhibitor concentration only (tannic acid 0, 25; octyl gallate and gallocatechin gallate 0, 200 μM), read-out: Ki (apparent), 7-HFC glucuronidation
# [10] = target: T4, UGT2B7 (Homo sapiens, UniProt P16662); conditions: 30 min, 100 μM, pH 7.5
# T4 sequence (P16662 24-529): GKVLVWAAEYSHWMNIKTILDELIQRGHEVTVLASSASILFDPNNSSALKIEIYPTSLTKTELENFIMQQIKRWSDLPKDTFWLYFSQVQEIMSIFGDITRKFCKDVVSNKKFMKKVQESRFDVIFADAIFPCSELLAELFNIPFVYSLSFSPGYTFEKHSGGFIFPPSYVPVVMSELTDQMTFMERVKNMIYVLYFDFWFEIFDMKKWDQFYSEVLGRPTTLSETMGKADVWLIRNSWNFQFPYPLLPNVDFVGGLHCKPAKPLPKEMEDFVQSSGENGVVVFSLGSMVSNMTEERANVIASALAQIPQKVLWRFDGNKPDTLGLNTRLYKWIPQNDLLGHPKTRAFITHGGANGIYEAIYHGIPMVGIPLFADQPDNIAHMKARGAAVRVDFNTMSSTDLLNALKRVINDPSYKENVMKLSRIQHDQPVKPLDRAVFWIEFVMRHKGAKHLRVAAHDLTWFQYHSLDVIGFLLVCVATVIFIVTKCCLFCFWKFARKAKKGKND
# [11] = pH 7.5, % of control metabolism, raloxifene G1
# [12] = pH 7.5, % of control metabolism, raloxifene G2
# [13] = pH 7.5, Inhibition of raloxifene glucuronidation, G1, UGT1A3
# [14] = pH 7.5, Inhibition of raloxifene glucuronidation, G2, UGT1A3
# [15] = pH 7.5, Inhibition of raloxifene glucuronidation, UGT1A9, first line per inhibitor (G1)
# [16] = pH 7.5, Inhibition of raloxifene glucuronidation, UGT1A9, second line per inhibitor (G2)
Structure (SMILES),"activity at 15 min, 50 µM [5, 11] [%]","activity at 15 min, 50 µM [5, 12] [%]","activity at 15 min, 50 µM [5, 13] [%]","activity at 15 min, 50 µM [5, 14] [%]","activity at 15 min, 50 µM [6, 11] [%]","activity at 15 min, 50 µM [6, 12] [%]","activity at 15 min, 50 µM ([7]; raloxifene G1) [%]","activity at 15 min, 50 µM ([7]; raloxifene G2) [%]",other results
"O=c1cc(C(F)(F)F)c2ccc(O)cc2o1 [7-HFC, 7-hydroxy-4-(trifluoromethyl)coumarin]",,,,,,,,,"7-HFC metabolism rate [1]: 6,829 ± 61 pmol/min/mg; 7-HFC glucuronidation rate as % of the rate for UGT1A6 ([2]; UGT1A9): 81%; 7-HFC glucuronidation rate ([2]; UGT1A9 Supersomes 250 μg/ml, 7-HFC 50 μM): 3976 ± 41 pmol/min/mg protein; 7-HFC glucuronidation rate in Panvera Bacculosomes as % of Gentest Supersomes ([3]; UGT1A3): 2%; 7-HFC glucuronidation rate ([3]; UGT1A3 Bacculosomes 250 μg/ml): 17 ± 1 pmol/min/mg protein; 7-HFC glucuronidation rate ([3]; UGT1A3 Supersomes 250 μg/ml): 952 ± 82 pmol/min/mg protein"
"CC/C(=C(/CC)c1ccc(O)cc1)c1ccc(O)cc1 [Diethylstilbestrol, reference compound]",,,,,,,,,"% of control metabolism (SD, n = 3), 7-HFC glucuronidation ([4]; inhibitor 5 μM): 90 (3) %; % of control metabolism (SD, n = 3), 7-HFC glucuronidation ([4]; inhibitor 10 μM): 80 (4) %"
"O=C(O)c1cc(-c2ccc(F)cc2F)ccc1O [Diflunisal, reference compound]",83,81,83,81,50,43,81,126,decrease in indomethacin clearance [8]: 70%
O=C(O[C@@H]1Cc2c(O)cc(O)cc2O[C@@H]1c1ccc(O)c(O)c1)c1cc(O)c(O)c(O)c1 [Epicatechin gallate],57,42,57,42,48,45,71,53,
C=CCc1ccc(O)c(OC)c1 [Eugenol],89,85,89,85,32,29,107,103,"activity at 15 min, 25 µM [6, 11]: 56%; activity at 15 min, 25 µM [6, 12]: 51%; activity at 15 min, 25 µM [6, 15]: 56%; activity at 15 min, 50 µM [6, 15]: 32%; activity at 15 min, 25 µM [6, 16]: 51%; activity at 15 min, 50 µM [6, 16]: 29%"
O=C(O[C@@H]1Cc2c(O)cc(O)cc2O[C@H]1c1cc(O)c(O)c(O)c1)c1cc(O)c(O)c(O)c1 [Gallocatechin gallate],,,,,,,,,Inhibition Type [9]: Non-competitive; Ki [9]: 40 ± 3 µM; Inhibition Type ([9]; listed as gallocatechin gallate): strictly non-competitive
"CC(CCc1ccccc1)NCC(O)c1ccc(O)c(C(N)=O)c1 (stereo not drawn) [Labetalol, labetalol]",,,,,,,,,"LG1/LG2 [10]: 12; labetalol metabolite LG1, peak area normalized to internal standard [10]: 993 (52); labetalol metabolite LG2, peak area normalized to internal standard [10]: 81 (3)"
CCCCCCCCOC(=O)c1cc(O)c(O)c(O)c1 [Octyl gallate],,,,,,,,,Inhibition Type [9]: strictly non-competitive; Ki [9]: 16 ± 2 µM
CCCOC(=O)c1cc(O)c(O)c(O)c1 [Propyl gallate],55,56,55,56,48,51,,,"activity at 15 min, 25 µM [5, 13]: 72%; activity at 15 min, 25 µM [5, 14]: 79%; % of control metabolism (SD, n = 3), 7-HFC glucuronidation ([4]; inhibitor 1000 μM): 46 (1) %; % of control metabolism (SD, n = 3), 7-HFC glucuronidation ([4]; inhibitor 2000 μM): 32 (0) %"
O=c1c(O)c(-c2ccc(O)c(O)c2)oc2cc(O)cc(O)c12 [Quercetin],,,,,,,95,81,
O=C(OC[C@H]1O[C@@H](OC(=O)c2cc(O)c(O)c(OC(=O)c3cc(O)c(O)c(O)c3)c2)[C@H](OC(=O)c2cc(O)c(O)c(OC(=O)c3cc(O)c(O)c(O)c3)c2)[C@@H](OC(=O)c2cc(O)c(O)c(OC(=O)c3cc(O)c(O)c(O)c3)c2)[C@@H]1OC(=O)c1cc(O)c(O)c(OC(=O)c2cc(O)c(O)c(O)c2)c1)c1cc(O)c(O)c(OC(=O)c2cc(O)c(O)c(O)c2)c1 [Tannic acid],,,,,,,,,"% of control metabolism (SD, n = 3), 7-HFC glucuronidation ([4]; inhibitor 5 μM): 72 (1) %; % of control metabolism (SD, n = 3), 7-HFC glucuronidation ([4]; inhibitor 10 μM): 47 (2), % and 50 (1) %; Inhibition Type [9]: Non-competitive; Ki [9]: 5.4 ± 0.4 µM"
